Source: the SangsterLogP compilation

Legend:
[1] = method code SF-RC, from DOI: 10.1021/jm701375u, PMID: 18307287; details: pH 7.4
[2] = not given; remark: listed apart in the source
[3] = method code SF-AS, from Rainer, G.; Krüger, U.; Klemm, K. (1981). Synthesis and physico-chemical properties of lonazolac-Ca, a new antiphlogistic/antirheumatic agent. Arzneimittelforschung, 31(4)649-55.
[4] = not given; remark: listed apart in the source
[5] = not given; remark: listed apart in the source
[6] = method code SF-AS, from PMID: 7306420; details: pH 7.5
[7] = method code SF-AS, from DOI: 10.1021/jm9800301, PMID: 9748357; details: pH 7.4
[8] = pH 7.5
[9] = method code SF-GLC, from DOI: 10.1584/jpestics.7.397
[10] = not given; remark: listed apart in the source
[11] = method code SF-RC, from DOI: 10.1021/es60172a005, PMID: 22280000
[12] = not given; remark: listed apart in the source
[13] = not given; remark: listed apart in the source
[14] = method code SF-AS, from DOI: 10.1111/j.2042-7158.1989.tb06480.x, PMID: 2570831; details: pH 7.4
[15] = not given; remark: listed apart in the source
[16] = method code SF-HPLC, from DOI: 10.1016/0378-5173(90)90303-l; details: pH 7.4
[17] = method code SF-AS, from DOI: 10.3390/molecules16097565, PMID: 21894089
[18] = method code SF, from DOI: 10.1021/acs.jmedchem.6b00554, PMID: 27500461; details: pH 7.4
[19] = not given; remark: listed apart in the source
[20] = method code SF-AS, from DOI: 10.1016/s0026-895x(25)10375-1
[21] = method code SF, from DOI: 10.1016/0223-5234(96)89550-x
[22] = method code SF-RC, from DOI: 10.17863/cam.48378, PMID: 23133799; details: pH 7.4
[23] = not given; remark: listed apart in the source
[24] = method code SF-AS, from DOI: 10.1002/jps.2600701116, PMID: 7299671; details: pH 2.2
[25] = not given; remark: listed apart in the source
[26] = method code SF-HPLC, from DOI: 10.1016/0378-5173(94)90060-4; details: pH 5.0
[27] = not given; remark: listed apart in the source
[28] = method code SF-HPLC, from DOI: 10.1016/j.bmc.2009.06.014, PMID: 19586774; details: pH 7.4
[29] = not given; remark: listed apart in the source
[30] = method code SF-HPLC, from DOI: 10.1016/j.ejmech.2009.03.025, PMID: 19386398; details: pH 7.4
[31] = method code SF, from DOI: 10.1016/j.ecoenv.2008.09.011, PMID: 19560203
[32] = method code SF-AS, from PMID: 12408720; details: pH 7.4
[33] = method code SF-AS, from DOI: 10.1016/s0928-0987(01)00170-1, PMID: 11500262; details: pH 12.5
[34] = method code SF-RC, from PMID: 3380859; details: pH 1.0
[35] = method code SF-AS, from DOI: 10.1016/j.ejps.2014.12.009, PMID: 25513709; details: pH 7.4
[36] = not given; remark: listed apart in the source
[37] = method code SF, from DOI: 10.1016/j.ejps.2014.02.002, PMID: 24530864; details: pH 7.4
[38] = not given; remark: listed apart in the source
[39] = method code G, from Wang, L.; Li, H.; Wang, X.; Zhang, Z. (1993). Determination of aqueous solubilities and partition coefficients of substitutive ethylketone congeners by generator column. Huanjing Huaxue, 12(2)151-154.
[40] = method code SF-HPLC, from DOI: 10.1016/0378-5173(85)90221-2; details: pH 1.5
[41] = method code SF-AS, from DOI: 10.1016/s0006-291x(75)80410-4, PMID: 1111518
[42] = method code SF, from DOI: 10.1016/s0969-8051(99)00063-3, PMID: 10628565; details: pH 7.4
[43] = method code SF-RC, from DOI: 10.1016/s0969-8051(03)00053-2; details: pH 7.4
[44] = not given; remark: listed apart in the source
[45] = method code SF-RC, from DOI: 10.1016/j.nucmedbio.2008.11.010, PMID: 19217534; details: pH 7.4

CCCCC(CC)CP(=O)(O)CC(CC)CCCC (stereo unspecified)
logP: 3.92

Brc1cccc(N2CCN(Cc3cnn4ccccc34)CC2)n1
logD [1]: 1.98

O=C1/C(=C/c2ccccc2F)CCCc2ccccc21
logP [2]: 4.55

O=C(O)Cc1cn(-c2ccccc2)nc1-c1ccc(Cl)cc1
logP [3]: 4.13

CCCCCCCCCCOc1ccc(C(=O)O)cc1
logP [4]: 5.77

Cc1ccc(CCNc2cc(-c3n[nH]c(N)n3)ccn2)cc1C
logP [5]: 3.08

C#CCN1C(=O)CN=C(c2ccccc2)c2cc(Cl)ccc21
logD [6]: 2.87

O=C(NCc1ccc(O)cc1)C(=O)c1c[nH]c2ccc([N+](=O)[O-])cc12
logD [7]: 2.67

CCN1CCC[C@H]1CNC(=O)c1c(O)c(I)cc(OC)c1OC
logD [8]: 2.5

CC(C)Oc1cccc(NC(=O)c2ccccc2C(F)(F)F)c1
logP [9]: 3.7

COc1ccc(C2=CC(c3ccc(S(C)(=O)=O)cc3)C=NC2=O)cn1 (stereo unspecified)
logP [10]: 1.7

c1ccc2nc(-c3ccc4ccccc4n3)ccc2c1
logP [11]: 4.31

COc1cccc(N(C)C(=N)Nc2cc(SC)ccc2Cl)c1
logP [12]: 2.34

N#Cc1ccc(CN2CCC(COC/C=C/I)CC2)cc1
logP [13]: 3.24

Nc1ncnc2c1ncn2C(c1ccccc1)c1ccccc1
logD [14]: 3.19

CC(=O)Oc1c(C)cc(OCC(O)CNC(C)C)c(C)c1C (stereo unspecified)
logP [15]: 1.95

CN(C)C(=O)COC(=O)c1cc(S(N)(=O)=O)c(Cl)cc1NCc1ccco1
logD [16]: 1.18

C[C@H](c1nc2ccc(F)cc2s1)N1C(=O)C(=O)N(c2ccccc2)C1=O
logP [17]: 1.51

Cc1sc(=NC(=O)C2C(C)(C)C2(C)C)n(CCCCF)c1C
logD [18]: 3.22

CC(CC(=O)O)(N=O)c1cc(Oc2ccc(C(F)(F)F)cc2Cl)ccc1[N+](=O)[O-] (stereo unspecified)
logP [19]: 4.3

CCN1CCC[C@H]1CNC(=O)c1c(OC)ccc(Br)c1OC
logP [20]: 2.1

O=C(Nc1ccn(C2CSC(CO)O2)c(=O)n1)c1cnc2ccccc2c1 (stereo unspecified)
logP [21]: 0.87

FCCOCCON=C1C=C(C#Cc2ccccn2)CCC1
logD [22]: 1.9

N#Cc1ccc(OCC2CCN(C/C=C/I)CC2)cc1
logP [23]: 3.36

C=C(CC(=O)c1ccc(-c2ccccc2Cl)cc1)C(=O)O
logD [24]: 3.32

CCCn1c(=O)c2[nH]c(-c3ccc(S(=O)(=O)O)cc3)nc2n(CCC)c1=O
logP [25]: -0.03

COC(=O)Nc1nc2cc(C(=O)c3ccccc3)ccc2n1C(=O)OC
logD [26]: 2.47

c1ccc(Oc2ccccc2-c2ccccc2)cc1
logP [27]: 5.66

CCc1cc(Cl)cc2[nH]c(=O)c(-c3cccc(NC)c3)c(O)c12
logD [28]: 1.92

c1cnc(N2CCN(Cc3ccc4c(c3)OCO4)CC2)nc1
logP [29]: 2.84

Cc1ccc(N=NC(C)C(=O)NCCc2ccc(O)cc2)cc1 (stereo unspecified)
logD [30]: 3.9

CCOC(=O)C1=C[C@@H](OC(CC)CC)[C@H](NC(C)=O)[C@@H](N)C1
logP [31]: 1.21

Cc1ccc(C(=O)Cn2c3c(sc2=N)CCCC3)cc1
logD [32]: 1.49

CN(C)CCCc1ccccc1-c1ccccc1
logD [33]: 5.53

Cn1c(CCCC(=O)O)nc2cc(N(CCCl)CCCl)ccc21
logD [34]: 0.44

COC1=CC(=O)CC(C)C12Oc1c(Cl)c(OC)cc(OC)c1C2=O (stereo unspecified)
logD [35]: 2.33

CN(C)CCc1c[nH]c2ccc(CS(=O)(=O)N3CCCC3)cc12
logP [36]: 1.6

Cc1ncc2n1-c1ccc(Cl)cc1C(c1ccccc1F)=NC2
logD [37]: 3

C[C@]12N[C@H](Cc3ccccc31)c1ccccc12
logP [38]: 1.79

COc1ccc(C(=O)CSc2ccc(C)cc2)cc1
logP [39]: 2.47

CCCc1c2c(c(O)c3c(=O)cc(C(=O)O)oc13)CCCC2
logD [40]: 4.4

C=CCN1CCN(C(=O)N=NC(=O)N2CCN(CC=C)CC2)CC1
logP [41]: 0.79

CC(=O)OCC1C(OC(C)=O)C(OC(C)=O)C(OC(C)=O)CN1CCCI (stereo unspecified)
logD [42]: 1.76

CCCn1c(=O)c2[nH]c(C3CCCC3)nc2n(C/C=C/I)c1=O
logD [43]: 2.96

COCCN1C=CC(=C2C(=O)c3ccc(Cl)cc3C2=O)C=C1
logP [44]: 2.78

N#Cc1ccc(C(c2ccc(C#N)cc2)n2cncn2)cc1
logD [45]: 1.84
